Where a SMILES comes first, the peptide text is derived from it. Bridges are numbered along the chain shown (N, C = ends). [ ]: non-standard residue; d: D form. The star is where a group is joined. hPhe(3-Cl-4-CF3) = N[C@@H](CCc1ccc(C(F)(F)F)c(Cl)c1)C(=O)O; NMePhe(4-Me) = CN[C@@H](Cc1ccc(C)cc1)C(=O)O; NMeGly(cPent) = CN[C@H](C(=O)O)C1CCCC1; NMeD = CN[C@@H](CC(=O)O)C(=O)O; NMeL = CN[C@@H](CC(C)C)C(=O)O; Morpholide = C1CN(*)CCO1; Ac5c = NC1(C(=O)O)CCCC1; NEtG = CCNCC(=O)O; Sar = CNCC(=O)O
Legend:
[1] = biological target: GDP-bound NRAS wild-type protein (Homo sapiens, UniProt P01111); assay: Binding to NRAS by surface plasmon resonance (SPR), Single Cycle Kinetics
Sequence of GDP-bound NRAS wild-type protein (P01111 whole entry): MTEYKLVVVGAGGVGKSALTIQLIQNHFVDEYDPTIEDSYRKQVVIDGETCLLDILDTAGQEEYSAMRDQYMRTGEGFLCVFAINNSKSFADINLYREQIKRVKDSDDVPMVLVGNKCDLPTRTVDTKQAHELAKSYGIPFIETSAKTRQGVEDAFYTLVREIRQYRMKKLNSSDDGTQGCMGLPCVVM

[2] = biological target: GDP-bound HRAS wild-type protein (Homo sapiens, UniProt P01112); assay: Binding to HRAS by surface plasmon resonance (SPR), Single Cycle Kinetics
Sequence of GDP-bound HRAS wild-type protein (P01112 whole entry): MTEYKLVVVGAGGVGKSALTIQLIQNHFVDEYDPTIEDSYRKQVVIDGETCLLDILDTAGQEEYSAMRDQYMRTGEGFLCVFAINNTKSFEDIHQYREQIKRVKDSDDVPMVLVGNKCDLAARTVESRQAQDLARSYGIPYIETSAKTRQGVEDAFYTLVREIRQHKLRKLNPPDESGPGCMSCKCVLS

[3] = GDP-bound NRAS wild-type vs GDP-bound KRAS wild-type, SPR
[4] = GDP-bound HRAS wild-type vs GDP-bound KRAS wild-type, SPR
[5] = KD ratio NRAS/KRAS, class symbols
[6] = KD ratio HRAS/KRAS, class symbols

CCO[C@@H]1C[C@H]2C(=O)NC3(CCC3)C(=O)N(C)[C@@H](C3CCCC3)C(=O)N(C)[C@H](C(=O)N(C)CC)CC(=O)N(C)[C@H]3CCCC/C=C/c4ccc(cc4)C[C@@H](C(=O)N(C)CC(=O)N[C@@H](CCc4cc(F)c(C(F)(F)F)c(F)c4)C(=O)N2C1)N1CC/C=C\C[C@@H](C1=O)N(C)C(=O)CN(C)C(=O)[C@H]([C@@H](C)CC)NC3=O [PP1827, (1S,7S,11R,13S,19S,22S,26S,29S,35S,37Z,47E)-19-cyclopentyl-7-[2-[3,5-difluoro-4-(trifluoromethyl)phenyl]ethyl]-11-ethoxy-N-ethyl-N,3,18,21,25,31,34-heptamethyl-29-[(1S)-1-methylpropyl]-2,5,8,14,17,20,24,27,30,33,55-undecaoxo-spiro[3,6,9,15,18,21,25,28,31,34,41-undecazapentacyclo[24.15.11.2^43,46.1^35,41.0^9,13]pentapentaconta-37,43(54),44,46(53),47-pentaene-16,1′-cyclobutane]-22-carboxamide]
NRAS/KRAS (ratio of KD value for NRAS to KD value for KRAS) [1, 3]: A (a compound having 10 or more and less than 20 is denoted as A) | HRAS/KRAS (ratio of KD value for HRAS to KD value for KRAS) [2, 4]: A (a compound having 10 or more and less than 20 is denoted as A)

CC[C@H](C)[C@@H]1NC(=O)[C@H](CC(C)C)N(C)C(=O)C[C@@H](C(=O)N(C)C)N(C)C(=O)[C@H](C2CCCC2)N(C)C(=O)C2(CCC2)NC(=O)[C@@H]2C[C@@H](C)CN2C(=O)[C@H](CCc2ccc(C(F)(F)F)c(Cl)c2)NC(=O)CN(C)C(=O)[C@H](Cc2ccc(C)cc2)N2CC/C=C\C[C@@H](C2=O)N(C)C(=O)CN(C)C1=O [PP1854]
NRAS/KRAS (ratio of KD value for NRAS to KD value for KRAS) [1, 3]: A (a compound having 10 or more and less than 20 is denoted as A) | HRAS/KRAS (ratio of KD value for HRAS to KD value for KRAS) [2, 4]: A (a compound having 10 or more and less than 20 is denoted as A)

CCC[C@H]1C(=O)N[C@@H]([C@@H](C)CC)C(=O)N2C[C@@H](OC)C[C@H]2C(=O)N(C)[C@H]2C/C=C\CCN(C2=O)[C@@H](Cc2ccc(C)cc2)C(=O)N(C)CC(=O)N[C@@H](CCc2ccc(C(F)(F)F)c(OC)c2)C(=O)N2C[C@@H](C)C[C@H]2C(=O)NC2(CC(C)(C)C2)C(=O)N(C)[C@@H](C2CCCC2)C(=O)N(C)[C@H](C(=O)N(C)C)CC(=O)N1C [PP2388]
NRAS/KRAS (ratio of KD value with respect to NRAS to KD value with respect to KRAS) ([1]; SPR, GDP-bound NRAS wild-type vs GDP-bound KRAS wild-type): A (a compound having 10 or more and less than 20 is denoted as A) | HRAS/KRAS (ratio of KD value with respect to HRAS to KD value with respect to KRAS) ([2]; SPR, GDP-bound HRAS wild-type vs GDP-bound KRAS wild-type): B (a compound having 3 or more and less than 10 is denoted as B)

CC[C@H](C)[C@@H]1NC(=O)[C@H](CC(C)C)N(C)C(=O)C[C@@H](C(=O)N2CCOCC2)N(C)C(=O)[C@H](C2CCCC2)N(C)C(=O)C2(CCCC2)NC(=O)[C@@H]2CCCN2C(=O)[C@H](CCc2ccc(C(F)(F)F)c(Cl)c2)NC(=O)CN(CC)C(=O)[C@H](Cc2ccc(C)cc2)N(C)C(=O)CN(CC)C(=O)CN(C)C1=O [PP0029] ([NMeL]I[Sar][NEtG][NMePhe(4-Me)][NEtG][hPhe(3-Cl-4-CF3)]P[Ac5c][NMeGly(cPent)][NMeD]-Morpholide; lactam N-11)
NRAS/KRAS (ratio of KD for GDP-bound NRAS wild-type to KD for KRAS) ([1]; KD ratio NRAS/KRAS, SPR): C (A compound having a KD ratio of 0.1 or more and less than 3 is denoted as C) | HRAS/KRAS (ratio of KD for GDP-bound HRAS wild-type to KD for KRAS) ([2]; KD ratio HRAS/KRAS, SPR): C (A compound having a KD ratio of 0.1 or more and less than 3 is denoted as C)

CCO[C@@H]1C[C@H]2C(=O)NC3(CCC3)C(=O)N(C)[C@@H](C(CC)CC)C(=O)N(C)[C@H](C(=O)N3CCCCC3)CC(=O)N(C)[C@H]3CCC/C=C/c4ccc(cc4)C[C@@H](C(=O)N(C)CC(=O)N[C@@H](CCc4ccc(Cl)c(Cl)c4)C(=O)N2C1)N1CC/C=C\C[C@@H](C1=O)N(C)C(=O)CN(C1CC1)C(=O)[C@H]([C@@H](C)CC)NC3=O [PP3039]
NRAS/KRAS (ratio of KD value with respect to GDP-bound NRAS wild-type protein to KD value with respect to KRAS) ([1]; KD ratio NRAS/KRAS, SPR, GDP-bound wild-type proteins): AA (a compound having 20 or more is denoted as AA) | HRAS/KRAS (ratio of KD value with respect to GDP-bound HRAS wild-type protein to KD value with respect to KRAS) ([2]; KD ratio HRAS/KRAS, SPR, GDP-bound wild-type proteins): A (a compound having 10 or more and less than 20 is denoted as A)

CC[C@H](C)[C@@H]1NC(=O)[C@H](COC)N(C)C(=O)C[C@@H](C(=O)N(C)C)N(C)C(=O)[C@H](C2CCCC2)N(C)C(=O)C2(CC(C)(C)C2)NC(=O)[C@@H]2C[C@@H](OC3CCC3)CN2C(=O)[C@H](CCc2cc(F)c(C(F)(F)F)c(F)c2)NC(=O)CN(C)C(=O)[C@H](CC2CCCCC2)N2CC/C=C\C[C@@H](C2=O)N(C)C(=O)CN(C2CC2)C1=O [PP2618]
NRAS/KRAS (ratio of KD value with respect to GDP-bound NRAS wild-type protein to KD value with respect to KRAS) [1, 5]: A (a compound having 10 or more and less than 20 is denoted as A) | HRAS/KRAS (ratio of KD value with respect to GDP-bound HRAS wild-type protein to KD value with respect to KRAS) [2, 6]: A (a compound having 10 or more and less than 20 is denoted as A)

CCO[C@@H]1C[C@H]2C(=O)NC3(CC(C)(C)C3)C(=O)N(C)[C@@H](C(CC)CC)C(=O)N(C)[C@H](C(=O)N(C)C)CC(=O)N(C)[C@@H](COC)C(=O)N[C@@H]([C@@H](C)CC)C(=O)N(C3CC3)CC(=O)N(C)[C@H]3C/C=C\CCN(C3=O)[C@@H](CC3CCC(F)(F)CC3)C(=O)N(C)CC(=O)N[C@@H](CCc3cc(F)c(C(F)(F)F)c(F)c3)C(=O)N2C1 [PP2568]
NRAS/KRAS (ratio of KD value with respect to GDP-bound NRAS wild-type protein to KD value with respect to KRAS) [1, 5]: A (a compound having 10 or more and less than 20 is denoted as A) | HRAS/KRAS (ratio of KD value with respect to GDP-bound HRAS wild-type protein to KD value with respect to KRAS) [2, 6]: B (a compound having 3 or more and less than 10 is denoted as B)

— patent US20250230193A1, “CYCLIC COMPOUND HAVING SELECTIVE KRAS INHIBITORY EFFECT ON HRAS AND NRAS” (CHUGAI SEIYAKU KABUSHIKI KAISHA, priority 2022, published 2025)
